Measured values reported in patent US11713305B2, “Zinc sensors for in vivo imaging of beta-cell function by MRI” (The Board of Regents of the University of Texas System, priority 2017, dated 2023).

Tests used:
[1] = r1 relaxivity measurements (20 MHz, 0.5 T, 37° C.); type: physicochemical; conditions: 100 mM Tris buffer; for r1 0.6 mM HSA alone / r1 No Zn^2+: no Zn^2+; for r1 With Zn^2+ / r1 Zn^2+ + 0.6 mM HSA: CA:Zn = 1:1; for r1 No Zn^2+: no HSA
Protocol: Longitudinal relaxation times were measured using inversion recovery method on a MRS-6 NMR analyzer from the Institute Joz̆ef Stefan (Ljubljana, Slovenija) operating at 20 MHz. Relaxivity was determined by linear regression analysis of the relaxation rates of five solutions (0-1.0 mM). All samples were measured at 310 K using a warm air blower. Five different sample concentrations (0, 0.25, 0.5, 0.75, 1.0 mM) of gadolinium complex were made up in Tris buffer at 0.1 M and pH 7.4 to generate the relaxivity value for the free complex. ZnCl2 was then added to each of the above sample to produce a [Gd]:[Zn] ratio of 1:1. After 30 min of incubation at 310 K, T1 measurements were performed, from which the relaxivity of sensor-Zn^2+ was calculated. Finally, HSA was added to each of above sample to achieve HSA concentration of 0.6 mM. After further incubation at 310 K for 30 min, T1 of each sensor-Zn^2+-HSA adduct was measured, from which the relaxivity of sensor-Zn^2+-HSA adduct was calculated. Zinc titrations were performed with constant [GdL]=0.5 mM and increasing amounts of [Zn^2+]=0-2 mM in Tris buffer at 0.1 M and pH 7.4.

HSA [2] = biological target: T1, HSA (Homo sapiens, UniProt P02768); test: Proton relaxation enhancement (PRE) titrations with HSA; type: binding; conditions: for r1^c (relaxivity of the bound state): HSA-bound GdL-Zn, from PRE fit; for Kd: fitting proton relaxation enhancement data to equation (1), 20 MHz, 310 K, read-out: KD(GdLZnHSA)
T1 construct: purchased Sigma-Aldrich
Protocol: Proton relaxation enhancement (PRE) titrations were performed to evaluate the binding of these agents to HSA under conditions where the concentration of HSA was varied while the concentration of GdL and Zn^2+ (1:1) were held constant (FIG. 6). […] These types of complexes only bind to HSA-binding site 2 of subdomain IIIA, so n was assumed=1.
Affinity constants to HSA were assessed by proton relaxation enhancement (PRE) measurements according to published procedures (Martins et al., 2013a; Martins et al., 2013b) The proton relaxation rates at increasing concentrations of protein were measured with a MRS-6 NMR analyzer (20 MHz, 310 K). For the E-titration, the concentrations of GdL complex (0.1 mM) and Zn(II) (0.1 mM) were kept constant, while the protein concentration was varied from 0 to 0.6 mM.

HSA [3] = biological target: T1, HSA; test: HSA dissociation constant by fluorescence competition with dansylglycine; type: binding; conditions: one site competition fitting with dansylglycine; in presence of Zn^2+; read-out: KD(GdLZnHSA)
Protocol: The procedures reported by Esqueda et al were followed (2009). A solution containing 5 μM of dansylglycine (or warfarin), 5 μM HSA, 400 μM GdL plus one equivalent of Zn^2+ was prepared in TRIS buffer. Aliquots of this solution were 2-fold diluted serially ten times by addition of a solution which contained the same concentrations of dansylglycine (warfarin) and HSA but no agent. The fluorescence of 100 μL aliquots was measured in triplicate in 96 well plates. In a similar manner solutions containing agent, HSA but no dansylglycine (warfarin), were also included. Four 100 μL aliquots of the solution containing no agent (maximum fluorescent intensity) were also measured in the same 96 well plate, along with four 100 μL aliquots of HSA in buffer.
The excitation and emission wavelengths used for the dansylglycine: 360 and 465 nm, respectively. The excitation and emission wavelengths used for warfarin: 320 and 380 nm, respectively.

mouse pancreas = test: In vivo MR imaging of glucose stimulated insulin secretion (GSIS) in the mouse pancreas; set-up: species or system C57B1/6 mice; conditions: for T1-weighted MR image enhancement in pancreatic tissues and kidneys: over the first 10-15 min after injection
Source text: Both phases of insulin secretion are considered essential, but the early RRP phase that is thought to be the first signal reduced during the development of type 2 diabetes (Komatsu et al., 2013; Hosker et al., 1989). In principle, both phases of insulin secretion should be detectable by MRI if enough sensor is present in the extracellular space during the time-course of these events. Biphasic GSIS was not detected by MRI in previous experiments using the first generation Zn^2+ sensors with a high affinity for Zn^2+ but we hypothesized that GSIS may be more easily detected using these second-generation agents having a much lower affinity for Zn^2+. To test this, dynamic MRI scans were collected after administering either GdL1, GdL2, GdL3 or GdL4 to C57B1/6 mice via a tail vein (0.07 mmol/kg). Nearly simultaneously with agent injection, a bolus (50 μL) of 20% w/v glucose was administered IP to stimulate secretion of insulin.
All animal experiments were performed in accordance with guidelines set by the UT Southwestern Institutional Animal Care and Use Committee (IACUC). Male C57b1/6 mice were fasted for at least 12 hours before imaging experiments. The animals were anaesthetized with isofluorane and catheterized via the tail vein. Once the animals were secured inside a 38 mm volume coil, the pancreas was positioned in the center of the 9.4 T Varian MRI scanner. Two 3D T1-weighted gradient echo pre-injection scans were obtained (TE/TR=1.69/3.34 ms, NEX8, Matrix=128×128 ×128). 70 μl of 20 mM contrast agent were injected i.v. and 50 μl of 20% w/v D-glucose were injected intraperitoneally and consecutive 3D T1-weighted scans were obtained sequentially to monitor signal enhancement in the pancreas. Identification of the pancreas was accomplished by locating the tissues surrounded by the spleen, stomach, and kidneys. A total of 3 animals were scanned per group and images were quantified and analyzed using ImageJ (National Institutes of Health, Bethesda, Md.). The signal intensities from ROIs of the tip of the pancreas were measured before, at every ˜3-4 minutes post D-glucose injection over 30 minutes total. The values were normalized to the signal intensity obtained from a water phantom placed on the mouse abdomen. Contrast enhancement was calculated using the formula
[formula] Statistical analysis was performed by comparing the mean values using a two-tailed t-test. Statistical difference was evaluated using t-scores and p-values at a 95 and 99% confidence level.

T1 sequence (P02768 25-609): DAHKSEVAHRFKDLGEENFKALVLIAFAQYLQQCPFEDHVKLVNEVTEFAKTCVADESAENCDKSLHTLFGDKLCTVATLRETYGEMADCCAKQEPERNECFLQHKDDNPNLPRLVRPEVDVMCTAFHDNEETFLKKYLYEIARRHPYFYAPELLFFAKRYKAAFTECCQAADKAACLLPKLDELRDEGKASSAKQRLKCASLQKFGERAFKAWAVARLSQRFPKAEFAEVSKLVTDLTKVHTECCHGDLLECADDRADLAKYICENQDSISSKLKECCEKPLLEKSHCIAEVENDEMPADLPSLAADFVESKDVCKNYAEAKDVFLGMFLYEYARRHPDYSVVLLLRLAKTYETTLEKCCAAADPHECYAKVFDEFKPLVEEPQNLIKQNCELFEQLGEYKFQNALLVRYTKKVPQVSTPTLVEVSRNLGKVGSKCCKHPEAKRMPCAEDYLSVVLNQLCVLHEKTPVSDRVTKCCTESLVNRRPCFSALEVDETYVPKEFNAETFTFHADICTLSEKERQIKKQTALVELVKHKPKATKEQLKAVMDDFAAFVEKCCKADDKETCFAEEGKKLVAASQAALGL

Row | Compound | r1 0.6 mM HSA alone [1] [s⁻¹ mM⁻¹] | r1 With Zn^2+ [1] | r1 Zn^2+ + 0.6 mM HSA [1] | r1 No Zn^2+ [1] [s⁻¹ mM⁻¹] | r1^c (relaxivity of the bound state) (HSA [2]) [s⁻¹ mM⁻¹] | Kd (HSA [2]) [µM] | Kd (HSA [3]) [µM] | dynamic images: phases of insulin secretion detected (mouse pancreas; 0.07 mmol/kg i.v., glucose IP, n=3) | Area under the curve (AUC) t=11−19 minutes post-glucose stimulation (FIG. 7C) (mouse pancreas; compared to control Gd-HPDO3A and GdL1) | enhancement profile from pancreas ROI normalized to external phantom (FIG. 7B) (mouse pancreas; mouse, in vivo) | pancreatic response at 3 minutes (FIG. 7A) (mouse pancreas; post-glucose stimulation) | pancreatic response at 15 minutes (FIG. 7A) (mouse pancreas; post-glucose stimulation) | T1-weighted MR image enhancement in pancreatic tissues and kidneys (mouse pancreas; 0.07 mmol/kg i.v., glucose IP)
1 | O=C(O)CN1CCN(CC(=O)O)CCN(CC(=O)NCCN(CCc2ccccn2)Cc2ccccn2)CCN(CC(=O)O)CC1 [GdL4] | 5.6 ± 0.1 | 5.1 ± 0.1^b s^−1 mM^−1 | 11.4 ± 0.3^b s^−1 mM^−1 | 4.7 ± 0.1 | 12 ± 0.3 | 55 ± 12 | 42 ± 1 | both early phase (3-4 min) and late phase (13-17 min) insulin secretion | improved bi-phasic profile | distinct bi-phasic profile | enhance the pancreas | shows second-phase enhancement | 
2 | O=C(O)CN1CCN(CCC(=O)NCCN(CCc2ccccn2)Cc2ccccn2)CCN(CC(=O)O)CCN(CC(=O)O)CC1 [GdL5] | 6.3 ± 0.2 | 5.3 ± 0.1^b s^−1 mM^−1 | 10.4 ± 0.3^b s^−1 mM^−1 | 4.9 ± 0.1 | 12 ± 0.3 | 54 ± 1 | 43 ± 1 |  |  |  |  |  | 
3 | O=C(O)CN1CCN(CC(=O)O)CCN(CC(=O)NCCN(Cc2ccccn2)Cc2ccccn2)CCN(CC(=O)O)CC1 [GdL1] | 5.8 ± 0.1 | 5.2 ± 0.1^b s^−1 mM^−1 | 17.8 ± 0.5^b s^−1 mM^−1 | 4.8 ± 0.1 | 20 ± 0.5 | 48 ± 6 | 36 ± 1 |  |  |  | enhance the pancreas |  | significant image enhancements
4 | O=C(O)CN1CCN(CCC(=O)NCCN(Cc2ccccn2)Cc2ccccn2)CCN(CC(=O)O)CCN(CC(=O)O)CC1 [GdL2] | 6.5 ± 0.1 | 5.5 ± 0.1^b s^−1 mM^−1 | 19.8 ± 0.6^b s^−1 mM^−1 | 4.9 ± 0.1 | 28 ± 0.3 | 49 ± 7 | 37 ± 1 |  |  |  |  |  | significant image enhancements
5 | O=C(O)CCN1CCN(CC(=O)O)CCN(CC(=O)NCCN(Cc2ccccn2)Cc2ccccn2)CCN(CC(=O)O)CC1 [GdL3] | 6.9 ± 0.2 | 5.4 ± 0.1^b s^−1 mM^−1 | 21.5 ± 0.7^b s^−1 mM^−1 | 5.0 ± 0.1 | 30 ± 0.6 | 51 ± 7 | 37 ± 1 |  |  |  |  |  | significant image enhancements
